Test results from patent US10329300B2, “Pyrazolo[3,4-d]pyrimidine compound or salt thereof” (TAIHO PHARMACEUTICAL CO., LTD., priority 2015, dated 2019).
Read-outs that look alike come from different tables or passages of the source.

Experiments:
Type in all cases: cell-based
[1] = test system: HER2-overexpressing human stomach cancer cell line NCI-N87 cells; assay: Cytostatic activity against HER2-expressing cell line NCI-N87 (CellTiter-Glo)
Description: HER2-overexpressing human stomach cancer cell line NCI-N87 cells were suspended in RPMI1640 medium (manufactured by Life Technologies Corp.) containing 10% fetal bovine serum. Meanwhile, EGFR-overexpressing highly activated human epithelioid cancer cell line A431 cells were suspended in DMEM, high glucose medium (manufactured by Life Technologies Corp.) containing 10% fetal bovine serum. Subsequently, each cell suspension was inoculated to each well of a 384-well flat-bottom microplate and cultured at 37° C. for 1 day in an incubator containing 5% carbon dioxide. […] The solution of the test compound in DMSO was diluted with the medium used in the suspension of each cell line, and this solution was added at a final concentration of DMSO of 0.2% to each well of the cell culture plate, followed by further culture at 37° C. for 3 days in an incubator containing 5% carbon dioxide.

[2] = test system: EGFR-overexpressing highly activated human epithelioid cancer cell line A431 cells; assay: Cytostatic activity against EGFR-expressing cell line A431 (CellTiter-Glo); conditions: 3-day culture, read-out: A431 cell growth inhibitory activity IC50 value
Description: Test Example 2 Measurement Test (In Vitro) of Cytostatic Activity Against HER2-Expressing Cell Line (NCI-N87) and EGFR-Expressing Cell Line (A431) and Comparison of Selectivity Thereof
HER2-overexpressing human stomach cancer cell line NCI-N87 cells were suspended in RPMI1640 medium (manufactured by Life Technologies Corp.) containing 10% fetal bovine serum. Meanwhile, EGFR-overexpressing highly activated human epithelioid cancer cell line A431 cells were suspended in DMEM, high glucose medium (manufactured by Life Technologies Corp.) containing 10% fetal bovine serum. Subsequently, each cell suspension was inoculated to each well of a 384-well flat-bottom microplate and cultured at 37° C. for 1 day in an incubator containing 5% carbon dioxide. The compound of the present invention or Comparative Example compound 1 was dissolved in DMSO, and the test compound was diluted into a concentration of 500 times the final concentration using DMSO. The solution of the test compound in DMSO was diluted with the medium used in the suspension of each cell line, and this solution was added at a final concentration of DMSO of 0.2% to each well of the cell culture plate, followed by further culture at 37° C. for 3 days in an incubator containing 5% carbon dioxide.
Rate of growth inhibition (%)=(C−T)/(C)×100 T: Luminescence intensity of a well supplemented with the test compound C: Luminescence intensity of a well not supplemented with the test compound

[3] = test system: HER2-overexpressing human breast cancer cell line SK-BR-3 cells; assay: Cytostatic activity against HER2-expressing cell line SK-BR-3 (CellTiter-Glo); conditions: 3-day culture, read-out: SK-BR-3 cell growth inhibitory activity IC50 value
Experimental: HER2-overexpressing human breast cancer cell line SK-BR-3 cells were suspended in McCoy's 5a medium (manufactured by Life Technologies Corp.) containing 10% fetal bovine serum. The cell suspension was inoculated to each well of a 384-well flat-bottom microplate and cultured at 37° C. for 1 day in an incubator containing 5% carbon dioxide. The compound of the present invention was dissolved in DMSO, and the test compound was diluted into 500 times as high concentration as the final concentration using DMSO. The solution of the test compound in DMSO was diluted with the medium used in the suspension of each cell line, and this solution was added at a final concentration of DMSO of 0.2% to each well of the cell culture plate, followed by further culture at 37° C. for 3 days in an incubator containing 5% carbon dioxide.

[4] = Homo sapiens, 72 h, 3-day culture, NCI-N87, read-out: NCI-N87 cell growth inhibitory activity IC50 value

Compound | IC50 ([2]; Homo sapiens, A-431, 72 h) | IC50 [1, 4] | other results
C=CC(=O)N1CCC[C@@H](n2nc(C(=O)Nc3ccc(OC(=O)N(C)C)cc3OC)c3c(N)ncnc32)C1 [Example 36, (R)-4-(1-(1-acryloylpiperidin-3-yl)-4-amino-1H-pyrazolo[3,4-d]pyrimidine-3-carboxamido)-3-methoxyphenyl dimethylcarbamate] | 2610 nM | – | IC50 ([1]; Homo sapiens, NCI-N87, 72 h, read-out: NCI-N87 cell growth inhibitory activity IC50 value (nM)): 8 nM
C=CC(=O)N1CC[C@@H](n2nc(C(=O)Nc3ccc(CC(=O)N(C)C)c(F)c3C)c3c(N)ncnc32)C1 [Example 56, (R)-1-(1-acryloylpyrrolidin-3-yl)-4-amino-N-(4-(2-(dimethylamino)-2-oxoethyl)-3-fluoro-2-methylphenyl)-1H-pyrazolo[3,4-d]pyrimidine-3-carboxamide] | 2510 nM | – | –
(R)-1-(1-acryloylpiperidin-3-yl)-4-amino-N-(4-(2-methoxy(methyl)amino-2-oxoethyl)-2-methylphenyl)-1H-pyrazolo[3,4-d]pyrimidine-3-carboxamide [Example 72] | – | – | IC50 ([1]; 3-day culture, NCI-N87, read-out: NCI-N87 cell growth inhibitory activity IC50 value): 5 nM; IC50 [3]: 16 nM; IC50 [2]: 1170 nM
C=CC(=O)N1CCC[C@@H](n2nc(C(=O)Nc3cc(C)c(CC(=O)N(C)C)cc3C)c3c(N)ncnc32)C1 [Example 39, (R)-1-(1-acryloylpiperidin-3-yl)-4-amino-N-(4-(2-(dimethylamino)-2-oxoethyl)-2,5-dimethylphenyl)-1H-pyrazolo[3,4-d]pyrimidine-3-carboxamide] | 1800 nM | 12 nM | IC50 ([3]; Homo sapiens, 72 h): 24 nM
C=CC(=O)N1CCC[C@@H](n2nc(C(=O)Nc3ccc(CC(=O)N(C)C)c(Cl)c3)c3c(N)ncnc32)C1 [Example 8, (R)-1-(1-acryloylpiperidin-3-yl)-4-amino-N-(3-chloro-4-(2-(dimethylamino)-2-oxoethyl)phenyl)-1H-pyrazolo[3,4-d]pyrimidine-3-carboxamide] | 956 nM | – | –
C=CC(=O)N1CCC[C@@H](n2nc(C(=O)Nc3ccc(CC(=O)N(C)C)c4c3OCO4)c3c(N)ncnc32)C1 [Example 53, (R)-1-(1-acryloylpiperidin-3-yl)-4-amino-N-(7-(2-(dimethylamino)-2-oxoethyl)benzo[d][1,3]dioxol-4-yl)-1H-pyrazolo[3,4-d]pyrimidine-3-carboxamide] | 1670 nM | 11 nM | –
(R,E)-4-(4-amino-1-(1-(4-dimethylamino)but-2-enoyl)piperidin-3-yl)-1H-pyrazolo[3,4-d]pyrimidine-3-carboxamido)naphthalen-1-yl dimethyl carbamate [Example 66] | – | – | IC50 [2]: 6040 nM
C=CC(=O)N1CCC[C@@H](n2nc(C(=O)Nc3nc4cc(F)ccc4o3)c3c(N)ncnc32)C1 [Comparative Example compound 1, (R)-1-(1-acryloylpiperidin-3-yl)-4-amino-N-(5-fluorobenzo[d]oxazol-2-yl)-1H-pyrazolo[3,4-d]pyrimidine-3-carboxamide, reference compound] | – | 2380 nM | cytostatic effect in evaluation using HER2-overexpressing cell lines ([1]; HER2-overexpressing cell lines, qualitative): very low cytostatic effect; IC50 ([3]; Homo sapiens, 72 h): 1130 nM
